Laboratory results reported in patent US20250263424A1, “KRAS INHIBITORS” (Bristol-Myers Squibb Company, priority 2022, published 2025).

Molecular target: Recombinant GMPPNP-loaded KRAS G12C (KRAS-G12C(ON), active form) (Homo sapiens, UniProt P01116, G12C)
Test: KRAS G12C RAF Disruption Assay (HTRF)
Type: biochemical
Conditions: GMPPNP-loaded KRAS G12C 5 nM, GST-RAF1 RBD 9 nM, values given in μM, read-out: KRASG12C RAF Disruption Assay (IC50)
Protocol: This is a functional assay that measures activity of compounds against […]., the active form of KRAS G12C. Recombinant GMPPNP-loaded KRAS G12C (5 nM) was treated with compound at room temperature for 20 minutes in assay buffer (50 mM Tris pH 7.5, 100 mM NaCl, 1 mM MgCl2, 1 mM DTT, 100 μg/ml BSA). Recombinant GST-RAF1 RBD (9 nM) was added, and the reaction mixture was incubated for 20 minutes. SA-Tb (0.25 nM) was added, and the reaction mixture was incubated for 3 hours. HTRF signal was measured (PerkinElmer Envision), the signal ratio (λem 520/λem 495) was calculated, and IC50 values were calculated from the dose-response curve.

Chain of Recombinant GMPPNP-loaded KRAS G12C (KRAS-G12C(ON), active form) (P01116 1-188 isoform P01116-2 G12C): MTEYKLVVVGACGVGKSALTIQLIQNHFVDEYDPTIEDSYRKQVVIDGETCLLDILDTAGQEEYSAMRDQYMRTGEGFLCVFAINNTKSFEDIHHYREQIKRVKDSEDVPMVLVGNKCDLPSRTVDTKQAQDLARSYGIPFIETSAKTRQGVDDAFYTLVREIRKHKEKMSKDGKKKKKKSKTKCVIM

Structure (SMILES) | IC50 [µM]
C[C@H]1CN(C(=O)/C(F)=C/c2nccs2)CCN1c1nc(OC[C@@H]2CCCN2C)nc2c(F)c(-c3cccc4cccc(Cl)c34)c(Cl)cc12 [Example 1, (Z)-1-((3S)-4-(6-chloro-7-(8-chloronaphthalen-1-yl)-8-fluoro-2-(((S)-1-methylpyrrolidin-2-yl)methoxy)quinazolin-4-yl)-3-methylpiperazin-1-yl)-2-fluoro-3-(thiazol-2-yl)prop-2-en-1-one] | 49
C[C@H]1CN(C(=O)/C(F)=C/c2ncccn2)CCN1c1nc(OC[C@@H]2CCCN2C)nc2c(F)c(-c3cccc4cccc(Cl)c34)c(Cl)cc12 [Example 2, (Z)-1-((3S)-4-(6-chloro-7-(8-chloronaphthalen-1-yl)-8-fluoro-2-(((S)-1-methylpyrrolidin-2-yl)methoxy)quinazolin-4-yl)-3-methylpiperazin-1-yl)-2-fluoro-3-(pyrimidin-2-yl)prop-2-en-1-one] | 61.3
Cc1cc(N)nc(-c2c(Cl)cc3c(N4CC5CCC4CN5C(=O)/C(F)=C/c4ccccn4)nc(OC[C@@H]4CCCN4C)nc3c2F)c1C(F)(F)F (stereo partly drawn) [Example 6, (Z)-1-(5-((7M)-7-(6-amino-4-methyl-3-(trifluoromethyl)pyridin-2-yl)-6-chloro-8-fluoro-2-(((S)-1-methylpyrrolidin-2-yl)methoxy)quinazolin-4-yl)-2,5-diazabicyclo[2.2.2]octan-2-yl)-2-fluoro-3-(pyridin-2-yl)prop-2-en-1-one] | 4.9
CN1CCC[C@H]1COc1nc(N2C[C@H]3CC[C@@H](C2)N3C(=O)/C(F)=C/c2ccccn2)c2cc(Cl)c(-c3cc(O)cc4ccccc34)c(F)c2n1 [Example 8, (Z)-1-((1R,5S)-3-(6-chloro-8-fluoro-7-(3-hydroxynaphthalen-1-yl)-2-(((S)-1-methylpyrrolidin-2-yl)methoxy)quinazolin-4-yl)-3,8-diazabicyclo[3.2.1]octan-8-yl)-2-fluoro-3-(pyridin-2-yl)prop-2-en-1-one] | 9.6
O=C(/C(F)=C/c1nccs1)N1[C@@H]2CC[C@H]1CN(c1nc(OC[C@@]34CCCN3C[C@H](F)C4)nc3c(F)c(-c4cccc5cccc(Cl)c45)ccc13)C2 [Example 10, (Z)-1-((1R,5S)-3-(7-(8-chloronaphthalen-1-yl)-8-fluoro-2-(((2R,7aS)-2-fluorotetrahydro-1H-pyrrolizin-7a(5H)-yl)methoxy)quinazolin-4-yl)-3,8-diazabicyclo[3.2.1]octan-8-yl)-2-fluoro-3-(thiazol-2-yl)prop-2-en-1-one] | 93
Cc1cc(N)nc(-c2c(Cl)cc3c(N4CC5CCC(C4)N5C(=O)/C(F)=C/c4nccs4)nc(OCC4(CN5CCCCC5)CC4)nc3c2F)c1C(F)(F)F [Example 11, (Z)-1-((1R,5S)-3-((7M)-7-(6-amino-4-methyl-3-(trifluoromethyl)pyridin-2-yl)-6-chloro-8-fluoro-2-((1-(piperidin-1-ylmethyl)cyclopropyl)methoxy)quinazolin-4-yl)-3,8-diazabicyclo[3.2.1]octan-8-yl)-2-fluoro-3-(thiazol-2-yl)prop-2-en-1-one] | 5.3

The next lines start with the values.

IC50 [µM] | Structure (SMILES)
55.2 | Cc1cc(N)nc(-c2c(Cl)cc3c(N4CCC5C(CCN5C(=O)/C(F)=C/c5nccs5)C4)nc(OC[C@]45CCCN4C[C@H](F)C5)nc3c2F)c1C(F)(F)F (single isomer, unassigned) [Example 26, Isomer 2]
2 | Cc1cc(N)nc(-c2c(Cl)cc3c(N4CC5CCC(C4)N5C(=O)/C(F)=C/c4ccccn4)nc(OC[C@@]45CCCN4C[C@H](F)C5)nc3c2F)c1C(F)(F)F [Example 7, (Z)-1-((1R,5S)-3-((7M)-7-(6-amino-4-methyl-3-(trifluoromethyl)pyridin-2-yl)-6-chloro-8-fluoro-2-(((2R,7aS)-2-fluorotetrahydro-1H-pyrrolizin-7a(5H)-yl)methoxy)quinazolin-4-yl)-3,8-diazabicyclo[3.2.1]octan-8-yl)-2-fluoro-3-(pyridin-2-yl)prop-2-en-1-one]
9.2 | Cc1cc(N)nc(-c2c(Cl)cc3c(N4CC5CC(C4)N5C(=O)/C(F)=C/c4nccs4)nc(OC[C@]45CCCN4C[C@H](F)C5)nc3c2F)c1C(F)(F)F [Example 12, (Z)-1-(3-((7M)-7-(6-amino-4-methyl-3-(trifluoromethyl)pyridin-2-yl)-6-chloro-8-fluoro-2-(((2R,7aR)-2-fluorotetrahydro-1H-pyrrolizin-7a(5H)-yl)methoxy)quinazolin-4-yl)-3,6-diazabicyclo[3.1.1]heptan-6-yl)-2-fluoro-3-(thiazol-2-yl)prop-2-en-1-one]
4.2 | Cc1cc(N)nc(-c2c(Cl)cc3c(N4CCC5C(C4)CN5C(=O)/C(F)=C/c4nccs4)nc(OC[C@]45CCCN4C[C@H](F)C5)nc3c2F)c1C(F)(F)F (stereo partly drawn) [Example 16, (Z)-1-(3-((7M)-7-(6-amino-4-methyl-3-(trifluoromethyl)pyridin-2-yl)-6-chloro-8-fluoro-2-(((2R,7aR)-2-fluorotetrahydro-1H-pyrrolizin-7a(5H)-yl)methoxy)quinazolin-4-yl)-3,7-diazabicyclo[4.2.0]octan-7-yl)-2-fluoro-3-(thiazol-2-yl)prop-2-en-1-one]
3.2 | Cc1cc(N)nc(-c2c(Cl)cc3c(N4C[C@H](C)N(C(=O)/C(F)=C/c5nccs5)C[C@H]4C)nc(OCC45CCCN4CC(F)C5)nc3c2F)c1C(F)(F)F (stereo partly drawn) [Example 19, (Z)-1-((2S,5R)-4-((7M)-7-(6-amino-4-methyl-3-(trifluoromethyl)pyridin-2-yl)-6-chloro-8-fluoro-2-((2-fluorotetrahydro-1H-pyrrolizin-7a(5H)-yl)methoxy)quinazolin-4-yl)-2,5-dimethylpiperazin-1-yl)-2-fluoro-3-(thiazol-2-yl)prop-2-en-1-one]

Same assay, conditions: GMPPNP-loaded KRAS G12C 5 nM, GST-RAF1 RBD 9 nM, values in nM, read-out: KRASG12C RAF Disruption Assay (IC50)

IC50 [µM] | Structure (SMILES)
0.4 | C#Cc1c(F)ccc2cc(O)cc(-c3ccc4c(N5C[C@H]6CC[C@@H](C5)N6C(=O)/C(F)=C/c5nccs5)nc(OC[C@@H]5CCCN5C)nc4c3F)c12 [Example 21, (Z)-1-((1R,5S)-3-(7-(8-ethynyl-7-fluoro-3-hydroxynaphthalen-1-yl)-8-fluoro-2-(((S)-1-methylpyrrolidin-2-yl)methoxy)quinazolin-4-yl)-3,8-diazabicyclo[3.2.1]octan-8-yl)-2-fluoro-3-(thiazol-2-yl)prop-2-en-1-one]
0.26 | C#Cc1c(F)ccc2cc(O)cc(-c3ccc4c(N5C[C@H]6CC[C@@H](C5)N6C(=O)/C(F)=C/c5ccccn5)nc(OC[C@@H]5CCCN5C)nc4c3F)c12 [Example 22, (Z)-1-((1R,5S)-3-(7-(8-ethynyl-7-fluoro-3-hydroxynaphthalen-1-yl)-8-fluoro-2-(((S)-1-methylpyrrolidin-2-yl)methoxy)quinazolin-4-yl)-3,8-diazabicyclo[3.2.1]octan-8-yl)-2-fluoro-3-(pyridin-2-yl)prop-2-en-1-one]
0.016 | CN1CCC[C@H]1COc1nc(N2CCN(C(=O)/C(F)=C/c3nccs3)[C@@H](CC#N)C2)c2ccc(-c3cc(O)cc4ccccc34)c(F)c2n1 [Example 23, 2-((S)-1-((Z)-2-fluoro-3-(thiazol-2-yl)acryloyl)-4-(8-fluoro-7-(3-hydroxynaphthalen-1-yl)-2-(((S)-1-methylpyrrolidin-2-yl)methoxy)quinazolin-4-yl)piperazin-2-yl)acetonitrile]
